Laboratory results: patent US20080105961A1, “Ligands of the Molecule Fit (Agt-121) and their Pharmaceutical Use” (priority 2004, published 2008)
Marks after values point to notes of the source that are not given here.

How the values were obtained:
melanocortin receptor = assay: Feeding response to ICV injection of SHU9119 after three days of ODN or saline infusion; type: in vivo, Sprague Dawley rats; conditions: mean ± SEM
From the text: To further analyse the link between FIT and the melanocortin system, the feeding response of Sprague Dawley rats to an ICV injection of SHU9119, a melanocortin receptor antagonist and known feeding stimulator was investigated. After three days of FIT antisense treatment, jumbled oligonucleotide or saline infusion, responses were compared to rats receiving an ICV injection of saline vehicle rather than SHU9119.

FIT mRNA [1] = assay: ICV infusion of FIT antisense ODN in Sprague Dawley rats: food intake and body weight; type: in vivo
Description: To confirm the appetite-suppressing and weight-reducing effects of central FIT suppression in an animal model other than P. obesus, the inventors performed the same experiments in Sprague Dawley rats. Male, 12 week old Sprague Dawley rats were infused with either saline, FIT antisense ODN, or jumbled ODN at 24 μg/day for four days. The sequence of the FIT antisense ODN and the jumbled ODN are the same as in Example 2 above.

MC4R = target: T1, MC4R (Rattus norvegicus, UniProt P70596); assay: Feeding response to MT II after ODN or saline infusion; type: in vivo, Sprague Dawley rats; conditions: mean ± SEM
T1 construct: from tissue; host or cells: living Sprague Dawley rats (brain)
T1 sequence (P70596 whole entry, the tested form may be a part): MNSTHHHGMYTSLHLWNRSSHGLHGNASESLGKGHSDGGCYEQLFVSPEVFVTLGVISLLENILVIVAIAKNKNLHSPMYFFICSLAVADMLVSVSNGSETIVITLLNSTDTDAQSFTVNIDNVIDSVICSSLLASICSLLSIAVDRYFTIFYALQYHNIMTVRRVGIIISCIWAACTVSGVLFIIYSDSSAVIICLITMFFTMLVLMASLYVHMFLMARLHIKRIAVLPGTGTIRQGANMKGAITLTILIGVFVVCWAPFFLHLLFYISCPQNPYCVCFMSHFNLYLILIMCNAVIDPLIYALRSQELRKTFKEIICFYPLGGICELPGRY
Description: To further investigate this relationship, antisense suppression of FIT in Sprague Dawley rats was again performed and these animals' responses to administration of the α-MSH analog MT II, a synthetic agonist of the MC4R and known suppressor of feeding. MT II effects on food intake and body weight in saline and jumbled ODN-treated control rats, as well as in FIT antisense-treated rats was measured.

FIT mRNA [2] = assay: ICV infusion of FIT antisense ODN in Psammomys obesus: food intake and body weight; type: in vivo
Description: To further investigate the orexigenic properties of FIT intracerebroventricular (ICV) antisense suppression of FIT was performed. This involved the infusion of FIT antisense oligonucleotides (ODNs) directly into the lateral ventricle space of the brain to suppress endogenous FIT mRNA levels. The effects of this treatment on food intake and body weight were measured and compared to control animals infused with a jumbled sequence ODN, or saline alone. 18 week old, male, lean, normal glucose tolerant (nGT) P. obesus animals were utilised for this study and infused with either saline, FIT antisense ODN, or jumbled ODN at 24 μg/day for four days. The sequence of the FIT antisense ODN was 5′-mu*mg*mg*mc*ma*g*a*a*t*t*g*c*a*mu*mu*mc*mc*mu*-3′, and the jumbled ODN 5′-mc*mg*mc*ma*mc*t*t*a*g*c*t*a*c*mu*mu*mg*mc*mu-3′, where m indicates the presence of a 2′O-Methyl-modified base, and * indicates a phosphorothioate linkage.

FIT mRNA [3] = assay: Pair-feeding study with indirect calorimetry (24 h): body weight, food intake, total energy expenditure; type: in vivo, Sprague Dawley rats; conditions: mean ± SEM; for Day 0 BW: baseline
Description: To investigate the mechanism of weight loss after FIT antisense treatment, a group of Sprague Dawley rats were pair fed to the average daily food intake levels of FIT antisense-treated rats, and indirect calorimetry (24 h) was performed before and after FIT antisense or jumbled ODN ICV infusion.
Total energy expenditure (TEE) was calculated from measurements of oxygen consumption and carbon dioxide production using indirect calorimetry (Ferrannini, 1988). Due to differences in body weight between the three groups of rats, TEE levels were calculated relative to whole body mass of the animals. […] FIT antisense-treated rats therefore have an inappropriately high level of energy expenditure for their body weight.

FIT mRNA [4] = assay: Metabolic heat production by indirect calorimetry (FIG. 1); type: in vivo, Sprague Dawley rats; conditions: pair fed, last half of dark phase and majority of light phase
From the text: FIG. 1 is a graphical representation of metabolic heat production in Sprague Dawley rats after three days of FIT antisense-treatment compared to jumbled ad libitum fed and jumbled pair fed rats. *p<0.05 pair fed compared to jumbled group, #p<0.05 pair fed compared to FIT antisense-treated group, ̂p<0.05 compared to both jumbled and FIT antisense-treated groups. Data are mean ±SEM.
To further dissect the nature of the inability to reduce TEE levels after FIT antisense treatment, metabolic heat production was measured by indirect calorimetry.

FIT mRNA [5] = assay: Hypothalamic FIT gene expression by semi-quantitative RT-PCR in ICV antisense-treated rats; type: in vivo, Sprague Dawley rats; conditions: hypothalamus, ICV-treated Sprague Dawley rats, mean ± SEM
Description: To confirm endogenous suppression of FIT in antisense-treated Sprague Dawley rats, FIT mRNA in the hypothalamus of these animals was measured.

[6] = ICV 24 μg/day, day 1, mean ± SEM
[7] = ICV 24 μg/day, day 2, mean ± SEM
[8] = ICV 24 μg/day, day 3, mean ± SEM
[9] = ICV 24 μg/day, day 4, mean ± SEM
[10] = baseline body weight, mean ± SEM
[11] = change compared to day 0, mean ± SEM
[12] = not pair fed (jumbled group ad libitum fed)
[13] = pair fed to food intake of FIT antisense-treated rats

For “5′-mc*mg*mc*ma*mc*t*t*a*g*c*t*a*c*mu*mu*mg*mc*mu-3′ [Jumbled, reference compound]”, the “Δ FI” value (melanocortin receptor; 48 hr food intake post minus pre injection) was 0.03 ± 0.02 g/g BW, the “48 hr FI post injection” value (melanocortin receptor; food intake relative to body weight, after ICV SHU9119 or vehicle injection) was 0.13 ± 0.01 g/g BW and the “48 hr FI pre injection” value (melanocortin receptor; food intake relative to body weight, during ICV infusion, before SHU9119 or vehicle injection) was 0.10 ± 0.01 g/g BW. For the same substance, the “Cumulative food intake, Day 1 Food” value (FIT mRNA [1]; [6]) was 18.7 ± 2.4 g, the “Cumulative food intake, Day 2 Food” value (FIT mRNA [1]; [7]) was 44.7 ± 4.1 g and the “Cumulative food intake, Day 3 Food” value (FIT mRNA [1]; [8]) was 72.6 ± 5.1 g. For the same substance, the “Cumulative food intake, Day 4 Food” value (FIT mRNA [1]; [9]) was 101.5 ± 6.1 g, the “Day 1 BW” value (FIT mRNA [1]; ICV 24 μg/day, mean ± SEM) was 457 ± 24 g and the “Day 2 BW” value (FIT mRNA [1]; ICV 24 μg/day, mean ± SEM) was 468 ± 23 g. The “Day 3 BW” value (FIT mRNA [1]; ICV 24 μg/day, mean ± SEM) was 473 ± 23 g, the “Day 4 BW” value (FIT mRNA [1]; ICV 24 μg/day, mean ± SEM) was 477 ± 22 g and the “Day 0 BW” value (FIT mRNA [1]; [10]) was 465 ± 24 g. The “Day 1 ΔBW” value (FIT mRNA [1]; [11]) was -7.8 ± 3.6 g, the “Day 2 ΔBW” value (FIT mRNA [1]; [11]) was 3.5 ± 3.7 g and the “Day 3 ΔBW” value (FIT mRNA [1]; [11]) was 6.3 ± 3.5 g. The “Day 4 ΔBW” value (FIT mRNA [1]; [11]) was 12.0 ± 4.1 g, the “Δ FI” value (MC4R; 24 hr food intake post minus pre injection) was −0.02 ± 0.01 g/g BW and the “24 hr FI post injection” value (MC4R; food intake after MT II or vehicle injection) was 0.04 ± 0.01 g/g BW. For the same substance, the “24 hr FI pre injection” value (MC4R; food intake, during ICV infusion, before MT II or vehicle injection) was 0.06 ± 0.01 g/g BW, the “Cumulative food intake, Day 1 Food” value (FIT mRNA [2]; [6]) was 8.9 ± 0.5^a g and the “Cumulative food intake, Day 2 Food” value (FIT mRNA [2]; [7]) was 17.3 ± 1.0^a g. For the same substance, the “Cumulative food intake, Day 3 Food” value (FIT mRNA [2]; [8]) was 27.3 ± 1.5^a g, the “Cumulative food intake, Day 4 Food” value (FIT mRNA [2]; [9]) was 38.7 ± 2.7 g and the “Day 1 BW” value (FIT mRNA [2]; ICV 24 μg/day, mean ± SEM) was 188 ± 9 g. The “Day 2 BW” value (FIT mRNA [2]; ICV 24 μg/day, mean ± SEM) was 188 ± 9 g, the “Day 3 BW” value (FIT mRNA [2]; ICV 24 μg/day, mean ± SEM) was 187 ± 9 g and the “Day 4 BW” value (FIT mRNA [2]; ICV 24 μg/day, mean ± SEM) was 187 ± 9 g. The “Day 0 BW” value (FIT mRNA [2]; [10]) was 191 ± 9 g, the “Day 1 ΔBW” value (FIT mRNA [2]; [11]) was -3.8 ± 0.7 g and the “Day 2 ΔBW” value (FIT mRNA [2]; [11]) was -3.3 ± 0.8 g. The “Day 3 ΔBW” value (FIT mRNA [2]; [11]) was -4.0 ± 1.6 g, the “Day 4 ΔBW” value (FIT mRNA [2]; [11]) was -3.5 ± 1.7 g and the “Day 0 BW” value (FIT mRNA [3]; [12]) was 404 ± 31 g. The “Day 4 BW” value (FIT mRNA [3]; [12]) was 386 ± 24 g, the “Food Intake” value (FIT mRNA [3]; [12]) was 81.1 ± 10.3 g and the “Δ BW” value (FIT mRNA [3]; [12]) was -17.3 ± 8.9 g. The “Δ TEE” value (FIT mRNA [3]; not pair fed) was -21 ± 17 kJ/day/kg, the “Post TEE” value (FIT mRNA [3]; not pair fed, total energy expenditure after ICV infusion) was 492 ± 61 kJ/day/kg and the “Pre TEE” value (FIT mRNA [3]; not pair fed, total energy expenditure before ICV infusion) was 513 ± 62 kJ/day/kg. For the same substance, the “Day 0 BW” value (FIT mRNA [3]; [13]) was 357 ± 9 g, the “Day 4 BW” value (FIT mRNA [3]; [13]) was 317 ± 7^a g and the “Food Intake” value (FIT mRNA [3]; [13]) was 39.1 ± 3.2^a g. The “Δ BW” value (FIT mRNA [3]; [13]) was -39.7 ± 9.9 g, the “Post TEE” value (FIT mRNA [3]; pair fed, after ICV infusion) was 456 ± 30^c kJ/day/kg and the “Pre TEE” value (FIT mRNA [3]; pair fed, before ICV infusion) was 556 ± 59 kJ/day/kg. The “Δ TEE” value (FIT mRNA [3]; pair fed) was -100 ± 28 kJ/day/kg, the “metabolic heat production compared to jumbled-treated ad libitum fed and FIT antisense-treated rats” value (FIT mRNA [4]) was “significantly reduced heat production” and the FIT gene expression (FIT mRNA [5]) was 8.4 ± 0.6 arbitrary units.
